According to patent publication US7629310B2, “RhoB as a suppressor of cancer cell growth, cell transformation, and metastasis” (University of South Florida, priority 2000, dated 2009):

Legend:
NIH3T3 cells [1] = assay: 5-FU-induced apoptosis (Annexin V, flow cytometry) in NIH3T3 cells; assay type: cell-based; settings: for 5-FU apoptotic rate after transfection: NIH3T3, transfected 24 hours then 5-FU 48 hours (FIG. 10A), control 28-30%; for percent of apoptosis induced by 5-FU after transfection: parental NIH3T3, transfected 24 hrs then 5-FU 48 hrs, control 28%
Method: (§1) Apoptosis Assay. Cells were collected by trypsinization, washed in wash buffer and stained with Annexin V and 7-AAD according to manufacturer's recommendation (PharMingen, San Diego, Calif.). Data acquisition and analysis was performed by the Flow Cytometry Core Facility at the H. Lee Moffitt Cancer Center (Tampa, Fla.). All the samples were performed in duplicate and a representative of 3 independent experiments were reported here.

H-Ras/NIH3T3 cells [2] = assay: 5-FU-induced apoptosis (Annexin V, flow cytometry) in H-Ras-transformed NIH3T3 cells; assay type: cell-based
Method: as §1

NIH3T3 cells [3] = assay: Wound healing migration assay in NIH3T3 cells; assay type: cell-based; settings: NIH3T3, 24 hours after wounding (FIG. 8D)
Method: (§2) Parental NIH3T3 (FIG. 8A) were transiently transfected with pcDNA3 vector control, H-Ras61L, CA-PI3K, or CA-Akt in the presence or absence of RhoA or RhoB or pcDNA3 for 36 hours. The cells were then split and cultured for another 4 weeks. The plates were examined for focus formation by staining. H-Ras/3T3 cells (FIG. 8B) and PANC-1 cells (FIG. 8C) were transiently transfected with pcDNA3 vector control, CA-Akt, or WT-Akt in the presence or absence of RhoA, RhoB, or pcDNA3 for 36 hours. The cells were then split and analyzed for their migration capabilities through collagen type I coated transfilters as described in the Materials and Methods section. NIH3T3 cells (FIGS. 8D and 8E) were transiently transfected with pcDNA3 vector control, H-Ras61L, CA-Akt, or WT-Akt in the presence or absence of RhoA, RhoB, or pcDNA3 for 36 hours. The monolayers were then scratched with a 20 μl pipette tip and micro-photographed at the time points indicated for analyzing their capability to migrate into and fill the wounded area.
The ability of RhoB to inhibit cancer cell migration was further confirmed in a different assay where cells are induced to migrate by physical wounding of cells plated on fibronectin pre-coated plates.

NIH3T3 cells [4] = assay: Focus formation assay in oncogene-transfected NIH3T3 cells; assay type: cell-based; set-up: inhibition of focus formation: concentration or dose not given beside the values; settings: for # of foci formed: 4 weeks
Method: Focus Formation Assay. NIH3T3 cells were seeded into 60-mm plates (1×10^6 cell/per plate) one day prior to gene transfection. […] Two days after transfection, the cells were seeded into 60-mm plates at a density of 2.5×10^3/per plate, and maintained in DMEM medium containing 1.5% CBS. The medium was changed every 3 days. 3-4 weeks later the cells were washed once with PBS and once with PBS/methanol (1:1), then washed with fresh anhydrous methanol and covered with crystal violet stain for 1 min at room temperature. Finally, the stain was displaced with water. The focus formation assay for A-549 cells was similarly performed as above except that following the transfection the cells were cultured in DMEM complete medium containing 400 μg/ml of geneticin (G418, […], Inc.). 3 weeks later, the cells were fixed with anhydrous methanol and stained with crystal violet; the plates were photographed. All the samples were performed in triplicate and a representative of 3 independent experiments was reported in the figure(s) and averages±standard deviation reported in the table.

H-Ras/3T3 cells = assay: Migration through collagen type I coated transfilters, H-Ras/3T3 cells; assay type: cell-based; settings: H-Ras/3T3 cells (FIG. 8B)
Method: as §2

H-Ras/NIH3T3 cells [5] = assay: Anoikis assay in H-Ras-transformed NIH3T3 cells; assay type: cell-based; settings: H-Ras-transformed NIH3T3, poly-HEMA plates
Method: (§3) Anoikis Assay. Cells were collected by trypsinization, washed twice with PBS, and re-suspended in serum-free medium containing 0.5% BSA; 5.0×10^5 cells were then seeded in triplicates into 60-mm plates pre-coated with poly(2-hydroxyethylmethacrylate) (poly-HEMA, SIGMA) according to the data sheet of the agents. 24 hrs later the cellular viability was determined by trypan blue exclusion.

MMP-2 = MMP-2 expression in conditioned medium of PANC-1 and PC3 cells (Western blotting); assay type: cell-based, human; settings: conditioned medium (FIG. 9C)
Method: HRas/3T3 cells (FIG. 9A) and PANC-1 cells (FIG. 9B) were transiently transfected with pcDNA3 vector control, H-Ras61L, CA-Akt, or WT-Akt in the presence or absence of RhoA, RhoB, or pcDNA3 for 36 hours. The cells were then split and analyzed for their invading capabilities through […]-coated transfilters as described in the Materials and Methods section. PANC-1 and PC3 cells (FIG. 9C) were transiently transfected with pcDNA3, with H-Ras61L in the presence or absence of RhoA, or RhoB for 36 hours. The cells were then serum-starved for another 36 hours; the conditioned medium was collected and 20 μg protein were analyzed for MMP-2 expression by Western Blotting.
One pivotal step in these processes is the ability of cancer cells to cut through the extracellular matrix. This is accomplished by a cascade of proteinases, among which matrix metalloproteinases (MMPs) play a pivotal role (Yoon, S. O. et al., J Biochem Mol Biol, 2003, 36:128-37; Stamenkovic, I. Semin Cancer Biol, 2000, 10:415-33). […] To this end, PANC-1 and PC3 cells were treated with LY294002, or transfected with pcDNA3-RhoA or RhoB, and the conditioned culture medium was collected and analyzed for MMP-2 expression by anti-MMP-2 Western blotting as described in the Materials and Methods section.

PANC-1 cells = assay: Migration through collagen type I coated transfilters, PANC-1 cells; assay type: cell-based, human; settings: PANC-1 cells (FIG. 8C)
Method: as §2

A-549 cells [6] = assay: Cell proliferation, A-549; assay type: cell-based, human; settings: A-549, 0-96 hours
Method: (§4) Cell Proliferation. Cells were collected and examined for cell number by trypan blue exclusion and hemocytometer counting under microscope at 0 h, 24 h, 48 h, 72 h and 96 h. All the samples were performed in triplicate and the averages of 3 independent experiments were reported.

A-549 cells [7] = assay: Anoikis assay in A-549 cells; assay type: cell-based, human; settings: A-549, poly-HEMA plates, 24 hr; control 40%
Method: as §3

NIH3T3 cells [8] = assay: Cell proliferation, parental NIH3T3; assay type: cell-based; settings: non-transformed NIH3T3, 0-96 hours
Method: as §4

| Compound | wound healing (NIH3T3 cells [3]) | # of foci formed (NIH3T3 cells [4]; oncogene transfected: EGFR) | # of foci formed (NIH3T3 cells [4]; oncogene transfected: ErbB2) | # of foci formed (NIH3T3 cells [4]; oncogene transfected: H-Ras) | # of foci formed (NIH3T3 cells [4]; oncogene transfected: K-Ras) | # of foci formed (NIH3T3 cells [4]; oncogene transfected: N-Ras) | # of foci formed (NIH3T3 cells [4]; oncogene transfected: v-Src) | ability to migrate through collagen type I (H-Ras/3T3 cells) | anoikis (H-Ras/NIH3T3 cells [5]) | MMP-2 protein secreted (MMP-2) | 5-FU apoptotic rate after transfection (NIH3T3 cells [1]) | percent of apoptosis induced by 5-FU after transfection (NIH3T3 cells [1]) | ability to migrate through collagen type I (PANC-1 cells) | growth rate (A-549 cells [6]) | cell death on deprivation of substratum attachment (anoikis) (A-549 cells [7]) | growth rate (NIH3T3 cells [8]) | further results |
| --- | --- | --- | --- | --- | --- | --- | --- | --- | --- | --- | --- | --- | --- | --- | --- | --- | --- |
| O=c1[nH]cc(F)c(=O)[nH]1 [5-FU, 5-fluorouracil] | – | – | – | – | – | – | – | – | – | – | – | – | – | – | – | – | apoptosis (NIH3T3 cells [1]; NIH3T3, 5-FU 48 hours (FIG. 10A)): 28-30%; apoptosis (NIH3T3 cells [1]; parental NIH3T3, 5-FU 2.0 μM 48 hrs (FIG. 4B)): 27-32%; apoptosis (H-Ras/NIH3T3 cells [2]; H-Ras-transformed NIH3T3, 5-FU 2.0 μM 48 hrs (FIG. 4B)): 16-18% |
| RhoA: closely related family member sharing 86% sequence identity with RhoB; wild-type, in HA-tagged pcDNA3, transfected as control | accelerated | 47 ± 7 | 61 ± 11 | 63 ± 11 | 71 ± 13 | 46 ± 8 | 35 ± 7 | migrated | slightly protected from anoikis | increased MMP-2 levels, but to a lesser extent | slightly protected | no significant effect | migrated | enhanced the rate of growth | protected these cells from anoikis | enhanced the rate of growth | – |
| RhoB: low molecular weight GTPase; wild-type RhoB subcloned into HA-tagged pcDNA3 and ectopically expressed by transfection | inhibited | 17 ± 3 | 19 ± 4 | 18 ± 3 | 16 ± 4 | 22 ± 3 | 26 ± 6 | dramatically hindered | enhanced anoikis | remarkably reduced | enhanced | 39% | dramatically hindered | inhibited the growth rate | 78% | not affected | colony (focus) formation (NIH3T3 cells [4]; co-transfection with H-Ras61L, CA-PI3K or CA-Akt, 4 weeks (FIG. 8A)): significant inhibition of colony formation; inhibition of focus formation (NIH3T3 cells [4]; focus formation by EGFR): 56%; inhibition of focus formation (NIH3T3 cells [4]; focus formation by ErbB2): 59%; inhibition of focus formation (NIH3T3 cells [4]; focus formation by H-Ras): 62%; inhibition of focus formation (NIH3T3 cells [4]; focus formation by K-Ras): 61%; inhibition of focus formation (NIH3T3 cells [4]; focus formation by N-Ras): 39%; inhibition of focus formation (NIH3T3 cells [4]; v-Src transformation): 15%; percent of apoptosis induced by 5-FU after transfection (H-Ras/NIH3T3 cells [2]; H-Ras-transformed NIH3T3, transfected 24 hrs then 5-FU 48 hrs, control 16%): 37% |
